# Results taken from patent US20220306695A1, “COMPSTATIN ANALOGUES AND THEIR MEDICAL USES” (priority 2019, published 2022).
# Positions of bridges follow the written chain, without caps; N, C: chain ends. Non-standard residues stand in square brackets, D forms with d. Residues, ends and D or L forms follow the SMILES beside them. Trp(1-Me) = Cn1cc(C[C@H](N)C(=O)O)c2ccccc21; 1Nal = N[C@@H](Cc1cccc2ccccc12)C(=O)O; 2Nal = N[C@@H](Cc1ccc2ccccc2c1)C(=O)O
# How the values were obtained:
# [1] = tested on: classical complement pathway; experiment: In vitro haemolysis assay (inhibition of classical complement pathway); assay type: cell-based, human; conditions: Table 3; human serum, sensitized sheep red blood cells; read-out: IC50[nM], in vitro analysis of inhibition of hemolysis
# Method in brief: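 Serially diluted compound (9 points) was preincubated 15 min at room temperature with diluted human serum, titrated per batch to give 70-90% maximal haemolysis, in Tris/casein buffer pH 7.4 with Mg2+/Ca2+. Antibody-sensitized sheep erythrocytes were then added for 30 min at 37° C, and the reaction was stopped with EDTA. Haemolysis was read at A405, with IC50 from 4PL fit.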
# [2] = Solubility test at 10 mg/mL (visual inspection and light scattering); assay type: physicochemical; conditions: for Solubility, Condition 1 Acetate pH 4: 10 mg/mL compound in 100 mM acetate pH 4; for Solubility, Condition 2 Acetate pH 5: 10 mg/mL compound in 100 mM acetate pH 5; for Solubility, Condition 3 Phosphate pH 6: 10 mg/mL compound in 100 mM phosphate pH 6; for Solubility, Condition 4 Phosphate pH 7: 10 mg/mL compound in 100 mM phosphate pH 7; for Solubility, Condition 5 Phosphate pH 7.5: 10 mg/mL compound in 100 mM phosphate pH 7.5
SMILES,IC50 [1] [nM],"Solubility, Condition 1 Acetate pH 4 [2]","Solubility, Condition 2 Acetate pH 5 [2]","Solubility, Condition 3 Phosphate pH 6 [2]","Solubility, Condition 4 Phosphate pH 7 [2]","Solubility, Condition 5 Phosphate pH 7.5 [2]"
CC[C@H](C)[C@@H]1NC(=O)[C@@H](NC(=O)[C@H](Cc2ccccc2)NC(=O)[C@H](C)NC(=O)[C@H](CO)NC(=O)CNC(=O)[C@H](CCC(=O)O)NC(C)=O)CSSC[C@@H](C(=O)N[C@H](C(=O)N[C@@H](CCC(=O)O)C(N)=O)[C@@H](C)O)NC(=O)[C@H](CCCNC(=N)N)NC(=O)[C@H](Cc2c[nH]cn2)NC(=O)[C@H](CCC(=O)O)NC(=O)CNC(=O)[C@H](Cc2c[nH]c3ccccc23)NC(=O)[C@H](CC(=O)O)NC(=O)[C@H](CCC(N)=O)NC(=O)[C@H](Cc2ccc3ccccc3c2)NC1=O [Compound 60] (Ac-EGSAFCI[2Nal]QDWGEHRCTE-NH2; disulfide 6-16),< 100,"− (denotes lack of solubility at the given condition, as UV absorbance at 340 nm exceeds 0.1 AU and/or it is visibly turbid or contains particles.)","− (denotes lack of solubility at the given condition, as UV absorbance at 340 nm exceeds 0.1 AU and/or it is visibly turbid or contains particles.)","+ (denotes solubility at the given condition, as determined by UV absorbance being less than 0.1 AU at 340 nm and the sample being clear when manually inspected.)","+ (denotes solubility at the given condition, as determined by UV absorbance being less than 0.1 AU at 340 nm and the sample being clear when manually inspected.)","+ (denotes solubility at the given condition, as determined by UV absorbance being less than 0.1 AU at 340 nm and the sample being clear when manually inspected.)"
CC[C@H](C)[C@@H]1NC(=O)[C@@H](NC(=O)[C@H](Cc2ccc(O)cc2)NC(C)=O)CSSC[C@@H](C(=O)N[C@H](C(=O)NCC(=O)N[C@@H](C)C(=O)N[C@@H](CCC(=O)O)C(=O)N[C@@H](CO)C(N)=O)[C@@H](C)O)NC(=O)[C@H](CCCNC(=N)N)NC(=O)[C@H](Cc2c[nH]cn2)NC(=O)[C@H](CCC(=O)O)NC(=O)CNC(=O)[C@H](Cc2c[nH]c3ccccc23)NC(=O)[C@H](CC(=O)O)NC(=O)[C@H](CCC(N)=O)NC(=O)[C@H](Cc2cn(C)c3ccccc23)NC1=O [Compound 62] (Ac-YCI[Trp(1-Me)]QDWGEHRCTGAES-NH2; disulfide 2-12),< 100,"− (denotes lack of solubility at the given condition, as UV absorbance at 340 nm exceeds 0.1 AU and/or it is visibly turbid or contains particles.)","− (denotes lack of solubility at the given condition, as UV absorbance at 340 nm exceeds 0.1 AU and/or it is visibly turbid or contains particles.)","+ (denotes solubility at the given condition, as determined by UV absorbance being less than 0.1 AU at 340 nm and the sample being clear when manually inspected.)","+ (denotes solubility at the given condition, as determined by UV absorbance being less than 0.1 AU at 340 nm and the sample being clear when manually inspected.)","+ (denotes solubility at the given condition, as determined by UV absorbance being less than 0.1 AU at 340 nm and the sample being clear when manually inspected.)"
CC[C@H](C)[C@@H]1NC(=O)[C@@H](NC(=O)[C@H](Cc2ccccc2)NC(C)=O)CSSC[C@@H](C(=O)N[C@H](C(=O)NCC(=O)N[C@@H](C)C(=O)N[C@@H](CCC(=O)O)C(=O)N[C@@H](CO)C(N)=O)[C@@H](C)O)NC(=O)[C@H](CCCNC(=N)N)NC(=O)[C@H](Cc2c[nH]cn2)NC(=O)[C@H](CCC(=O)O)NC(=O)CNC(=O)[C@H](Cc2c[nH]c3ccccc23)NC(=O)[C@H](CC(=O)O)NC(=O)[C@H](CCC(N)=O)NC(=O)[C@H](Cc2cccc3ccccc23)NC1=O [Compound 63] (Ac-FCI[1Nal]QDWGEHRCTGAES-NH2; disulfide 2-12),< 100,"− (denotes lack of solubility at the given condition, as UV absorbance at 340 nm exceeds 0.1 AU and/or it is visibly turbid or contains particles.)","− (denotes lack of solubility at the given condition, as UV absorbance at 340 nm exceeds 0.1 AU and/or it is visibly turbid or contains particles.)","+ (denotes solubility at the given condition, as determined by UV absorbance being less than 0.1 AU at 340 nm and the sample being clear when manually inspected.)","+ (denotes solubility at the given condition, as determined by UV absorbance being less than 0.1 AU at 340 nm and the sample being clear when manually inspected.)","+ (denotes solubility at the given condition, as determined by UV absorbance being less than 0.1 AU at 340 nm and the sample being clear when manually inspected.)"
CC[C@H](C)[C@@H]1NC(=O)[C@@H](NC(=O)[C@H](Cc2ccc(O)cc2)NC(C)=O)CSSC[C@@H](C(=O)N[C@H](C(=O)NCC(=O)N[C@@H](C)C(=O)N[C@@H](CCC(=O)O)C(=O)N[C@@H](CO)C(N)=O)[C@@H](C)O)NC(=O)[C@H](CCCNC(=N)N)NC(=O)[C@H](Cc2c[nH]cn2)NC(=O)[C@H](CCC(=O)O)NC(=O)CNC(=O)[C@H](Cc2c[nH]c3ccccc23)NC(=O)[C@H](CC(=O)O)NC(=O)[C@H](CCC(N)=O)NC(=O)[C@H](Cc2ccc3ccccc3c2)NC1=O [Compound 65] (Ac-YCI[2Nal]QDWGEHRCTGAES-NH2; disulfide 2-12),< 100,"− (denotes lack of solubility at the given condition, as UV absorbance at 340 nm exceeds 0.1 AU and/or it is visibly turbid or contains particles.)","− (denotes lack of solubility at the given condition, as UV absorbance at 340 nm exceeds 0.1 AU and/or it is visibly turbid or contains particles.)","+ (denotes solubility at the given condition, as determined by UV absorbance being less than 0.1 AU at 340 nm and the sample being clear when manually inspected.)","+ (denotes solubility at the given condition, as determined by UV absorbance being less than 0.1 AU at 340 nm and the sample being clear when manually inspected.)","+ (denotes solubility at the given condition, as determined by UV absorbance being less than 0.1 AU at 340 nm and the sample being clear when manually inspected.)"
CC[C@H](C)[C@@H]1NC(=O)[C@@H](NC(=O)[C@H](Cc2ccc(O)cc2)NC(C)=O)CSSC[C@@H](C(=O)N[C@H](C(=O)NCC(=O)N[C@@H](C)C(=O)N[C@@H](CCC(=O)O)C(=O)N[C@@H](CO)C(N)=O)[C@@H](C)O)NC(=O)[C@H](CCCNC(=N)N)NC(=O)[C@H](Cc2c[nH]cn2)NC(=O)[C@H](CCC(=O)O)NC(=O)CNC(=O)[C@H](Cc2c[nH]c3ccccc23)NC(=O)[C@H](CC(=O)O)NC(=O)[C@H](CCC(N)=O)NC(=O)[C@H](Cc2c[nH]c3ccccc23)NC1=O [Compound 66] (Ac-YCIWQDWGEHRCTGAES-NH2; disulfide 2-12),< 100,"− (denotes lack of solubility at the given condition, as UV absorbance at 340 nm exceeds 0.1 AU and/or it is visibly turbid or contains particles.)","− (denotes lack of solubility at the given condition, as UV absorbance at 340 nm exceeds 0.1 AU and/or it is visibly turbid or contains particles.)","+ (denotes solubility at the given condition, as determined by UV absorbance being less than 0.1 AU at 340 nm and the sample being clear when manually inspected.)","+ (denotes solubility at the given condition, as determined by UV absorbance being less than 0.1 AU at 340 nm and the sample being clear when manually inspected.)","+ (denotes solubility at the given condition, as determined by UV absorbance being less than 0.1 AU at 340 nm and the sample being clear when manually inspected.)"
CC[C@H](C)[C@@H]1NC(=O)[C@@H](NC(=O)[C@H](Cc2ccccc2)NC(=O)[C@H](CCC(=O)O)NC(=O)[C@H](CO)NC(C)=O)CSSC[C@@H](C(=O)N[C@H](C(=O)NCC(=O)N[C@@H](C)C(=O)N[C@@H](CCC(=O)O)C(=O)N[C@@H](CO)C(N)=O)[C@@H](C)O)NC(=O)[C@H](CCCNC(=N)N)NC(=O)[C@H](Cc2c[nH]cn2)NC(=O)[C@H](CCC(=O)O)NC(=O)CNC(=O)[C@H](Cc2c[nH]c3ccccc23)NC(=O)[C@H](CC(=O)O)NC(=O)[C@H](CCC(N)=O)NC(=O)[C@H](Cc2cn(C)c3ccccc23)NC1=O [Compound 67] (Ac-SEFCI[Trp(1-Me)]QDWGEHRCTGAES-NH2; disulfide 4-14),< 100,"− (denotes lack of solubility at the given condition, as UV absorbance at 340 nm exceeds 0.1 AU and/or it is visibly turbid or contains particles.)","− (denotes lack of solubility at the given condition, as UV absorbance at 340 nm exceeds 0.1 AU and/or it is visibly turbid or contains particles.)","+ (denotes solubility at the given condition, as determined by UV absorbance being less than 0.1 AU at 340 nm and the sample being clear when manually inspected.)","+ (denotes solubility at the given condition, as determined by UV absorbance being less than 0.1 AU at 340 nm and the sample being clear when manually inspected.)","+ (denotes solubility at the given condition, as determined by UV absorbance being less than 0.1 AU at 340 nm and the sample being clear when manually inspected.)"
